Data set [1] has as its system BT-474. Description: Antitumor activity against PI3KCA mutant human BT474 cells xenografted in BALB/c nude mouse assessed as tumor growth inhibition at 30 mg/kg, po administered once daily and measured after 30 days by caliper method relative to control. The class given is functional. To be noted: BT-474, po, 720 h, read-out: TGI.
In data set [2] the test system is BT-474. Nature of the data set: Antitumor activity against PI3KCA mutant human BT474 cells xenografted in BALB/c nude mouse assessed as tumor growth inhibition at 40 mg/kg, po administered once daily and measured after 30 days by caliper method relative to control. The format is functional. The settings on record: BT-474, po, 720 h, read-out: TGI.
Data set [3] in a line: Half life in Sprague-Dawley rat at 1 mg/kg, iv by HPLC analysis. The format is ADME, organism-based. To be noted: in vivo.
Data set [4] has as its target T1, Phosphatidylinositol 4,5-bisphosphate 3-kinase catalytic subunit delta isoform (Homo sapiens, UniProt O00329).
T1 sequence (O00329 whole entry): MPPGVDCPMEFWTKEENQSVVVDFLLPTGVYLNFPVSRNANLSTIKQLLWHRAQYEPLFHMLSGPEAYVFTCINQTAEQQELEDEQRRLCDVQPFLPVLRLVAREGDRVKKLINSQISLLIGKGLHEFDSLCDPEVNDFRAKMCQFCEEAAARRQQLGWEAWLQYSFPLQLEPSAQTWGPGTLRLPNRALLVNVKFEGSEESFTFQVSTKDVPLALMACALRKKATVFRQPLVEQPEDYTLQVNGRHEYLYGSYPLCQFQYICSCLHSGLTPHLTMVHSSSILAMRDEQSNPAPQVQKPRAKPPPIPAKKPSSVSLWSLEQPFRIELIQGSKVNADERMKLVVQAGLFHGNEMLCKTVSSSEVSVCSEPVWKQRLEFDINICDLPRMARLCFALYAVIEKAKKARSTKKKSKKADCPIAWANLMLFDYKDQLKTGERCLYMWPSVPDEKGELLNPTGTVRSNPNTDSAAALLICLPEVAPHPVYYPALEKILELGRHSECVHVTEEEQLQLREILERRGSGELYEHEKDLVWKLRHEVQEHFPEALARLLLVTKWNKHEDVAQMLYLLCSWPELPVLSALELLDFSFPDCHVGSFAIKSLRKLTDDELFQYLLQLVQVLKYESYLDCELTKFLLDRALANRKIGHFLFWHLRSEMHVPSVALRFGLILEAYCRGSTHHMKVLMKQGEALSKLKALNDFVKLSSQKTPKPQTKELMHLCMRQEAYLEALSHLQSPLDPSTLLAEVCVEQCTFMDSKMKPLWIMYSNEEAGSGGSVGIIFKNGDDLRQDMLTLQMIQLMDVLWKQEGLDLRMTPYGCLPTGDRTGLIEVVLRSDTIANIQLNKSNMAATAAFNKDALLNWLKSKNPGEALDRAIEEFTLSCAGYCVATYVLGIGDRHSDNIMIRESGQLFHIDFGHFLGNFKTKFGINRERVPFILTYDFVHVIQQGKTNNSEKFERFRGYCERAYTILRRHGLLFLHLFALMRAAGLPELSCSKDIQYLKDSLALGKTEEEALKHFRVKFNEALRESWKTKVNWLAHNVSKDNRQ
Description: Inhibition of PI3Kdelta in human Jeko1 cells assessed as reduction in AKT phosphorylation at residue S473 measured after 2 hrs by sandwich ELISA. For orientation: In an ELISA, binding on a coated surface is turned into a signal by an enzyme label.

Data set [5] in a line: Protein binding in CD-1 mouse plasma measured after 4 hrs by LC-MS/MS analysis. The format is ADME, cell-free. To be noted: read-out: PPB (converted).
Data set [6] can be described thus: Dose normalized AUC (0 to last) in Sprague-Dawley rat at 3 mg/kg, po by HPLC analysis. The format is ADME, organism-based. The settings on record: in vivo.

One may read the half-life as the time needed for the level to fall by half in the phase considered. High values mean slow loss, low ones fast loss. Broadly, the IC50 is the midpoint of a concentration-inhibition curve.

Regarding `CNC(=O)[C@H](C)Cn1cnc2ccc(-c3cnc(OC)c(NS(=O)(=O)c4ccc(F)cc4Cl)c3)cc2c1=O`, the inhibition in vivo at 30 mg/kg in data set [1] stood at 86%. Moreover, the inhibition in vivo at 40 mg/kg in data set [2] was found to be 90.7%. This molecule showed a half-life in data set [3] of 1.22 h. Also, in data set [4], the IC50 worked out at 0.183 µM. In data set [5], the fraction unbound at 4 h was 0.014. In data set [6], this molecule came in with an AUClast/dose of 2711 nM·h.

The record behind these values is ChEMBL document CHEMBL4619796, “Discovery of 3-Quinazolin-4(3H)-on-3-yl-2,N-dimethylpropanamides as Orally Active and Selective PI3Kα Inhibitors” (ACS Med Chem Lett, 2020).
